Data published in patent publication US20220354840A1, “NICOTINE POUCH” (Enorama Pharma AB, priority 2019, published 2022).
Read-outs that look alike come from different tables or passages of the source.

What was measured:
[1] = cited from earlier work
[2] = Stability study: degradation products by HPLC-UV; format: physicochemical; conditions: pre-stressed sample, elevated temperature and light
Protocol: • nicotine release at 30 min • degradation product Pouch samples from Example 1 were stored in a plastic container with closed (but not hermetically sealed) lid at 21-22° C./60-62% RH for up to 3 months. The release of nicotine at 30 min for the pouch product stored for 1 month at 21-22° C./60-62% RH was analyzed, using the UV spectrophotometrical method described above.
Pouch samples from Example 1 were also analyzed for the detection of potential degradation products, using HPLC-UV method (Agilent 1200 series HPLC). Samples with the same excipients but without the nicotine API and samples with the nicotine API was used to identify reference (blank) peaks. A pre-stressed sample of nicotine was prepared (using elevated temperature and light) to reveal any peaks originating from heat- and light-induced degradation of nicotine. […] The obtained peaks in the chromatogram corresponds to nicotine or solvent injection peak. The chromatogram from the HPLC-UV analysis of pre-stressed sample of nicotine (FIG. 5A), which was compared to the chromatogram of nicotine bitartrate dihydrate spiked into the reference sample without API (FIG. 5B).

Compound	Solubility in water (descriptive) [1]	further results
CC(C)[C@@H]1CC[C@@H](C)C[C@H]1O [L-Menthol]	Low soluble	
CC1=CC(=O)NS(=O)(=O)O1 [Acesulfame K, Acesulfame potassium]	High solubility:	Solubility in water ([1]; at 20° C.): 270 mg/ml at 20 °C
CC(O)CO (centres unmarked) [Propylene glycol]	Soluble	
OC[C@@H](O)[C@@H](O)[C@H](O)[C@H](O)CO [D-Mannitol]	Very soluble	Solubility in water ([1]; at 25° C.): 216 mg/ml at 25 °C
OC[C@@H](O)[C@H](O)[C@@H](O)CO [Xylitol]	Very soluble	
CN1CCCC1c1cccnc1 (centres unmarked) [nicotine]		peaks from potential degradation products (HPLC-UV) [2]: No additional peaks from potential degradation products
